Patent publication US20250283871A1, “COMPOSITIONS AND METHODS FOR MODULATING THE INTERACTION BETWEEN SS18-SSX FUSION ONCOPROTEIN AND NUCLEOSOMES” (Dana-Farber Cancer Institute, Inc., priority 2020, published 2025)
Where “and” joins values, the source holds several entries; their conditions need not be identical. Identical values can stand only once. One block for each substance: values may come before it.

Tests used:
[1] = tested on: BAF complex components; test: anti-SMARCA4 (BRG1) IP mass spectrometry (Tables 7A-7C); assay type: cell-based, human; settings: Aska-SS cells -/+ shSSX
Description: Peptide abundance normalized to SMARCA4 abundance. […] SMARCC1, SS18, GFP, SMARCB1, and TBP levels are shown. […] T indicates 0-40 min timecourse; n=3 experimental replicates at each time point; error bars represent standard deviation.
Nuclear extracts were quantified by Bradford assay and 150-200 μg of protein was incubated with 2 μg of antibody in Buffer EB300 (50 mM Tris pH 7.5, 0.1% NP-40, 1 mM EDTA, 1 mM MgCl2, […] with protease inhibitor (Roche, C756U27), 1 mM DTT and 1 mM phenylmethylsulfonyl fluoride (PMSF)) overnight at 4° C. Each sample was then incubated with Protein G Dynabeads® (Thermo Scientific) for 2-3 hours. Beads were washed three times with Buffer EB300 followed by elution with 20 μL of elution buffer (NuPage™ LDS buffer (2×) (Life Technologies) containing 100 mM DTT and water).

[2] = molecular target: T1, mammalian mononucleosomes from HEK-293T cells (Homo sapiens, UniProt P0C0S5); test: Quantitative targeted mass spectrometry of histone marks on MBP-SSX1 78aa-bound nucleosomes (Tables 6A-6C); assay type: binding; settings: SSX1 pulldown, HEK293T nucleosomes; parent peptide H2A.Z; normalized to histone norm peptide, log2
T1 construct: endogenous in cells; host or cells: HEK293T (chromatin digested with MNase, glycerol gradient)
T1 sequence (P0C0S5 whole entry): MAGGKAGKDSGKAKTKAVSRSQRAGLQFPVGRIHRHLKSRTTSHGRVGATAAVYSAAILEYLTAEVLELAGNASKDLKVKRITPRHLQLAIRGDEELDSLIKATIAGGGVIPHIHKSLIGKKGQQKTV
Description: (§1) Mammalian mono-nucleosomes purified from MBP-SSX1 78aa pull downs along with representative input samples were prepared and analyzed by the targeted mass spectrometry pipeline described previously (Creech et al. (2015) Methods 72:57-64). Briefly, samples were prepared by histone extraction by acid precipitation followed by protein digestion from incubation with trypsin. To these prepared samples, synthesized isotopically labeled peptides of histone tails with numerous modifications were added at a known quantity. Each sample was then separated using a Proxeon EASY-nLC™ 1000 UHPLC system (Thermo Scientific) and detected with a Q Exactive™ mass spectrometer (Thermo Scientific). The fold change in abundance of each histone peptide from the input sample compared to the pull down was calculated from the light:heavy ratio in detected peak size.

[3] = molecular target: T2, mammalian mononucleosomes from HEK-293T cells (Homo sapiens, UniProt P62805); test: as above; assay type: binding; settings: SSX1 pulldown, parent peptide H4K20
T2 construct: endogenous in cells; host or cells: HEK293T (chromatin digested with MNase, glycerol gradient)
Description: as §1

[4] = tested on: mammalian mononucleosomes from HEK-293T cells; test: as above; assay type: binding, human; settings: SSX1 pulldown
Description: as §1

[5] = tested on: mammalian mononucleosomes from HEK293T cells; test: Protein and peptide pull downs with mammalian mononucleosomes; assay type: binding, human; settings: mammalian mononucleosomes
Description: The flow through was removed, the immobilized bait was incubated with 1-2 μg of purified mammalian mono-nucleosomes from HEK293T cells, recombinant mono-nucleosomes (EpiCypher, 16-0006), recombinant H2AK119Ub mono-nucleosomes (EpiCypher, 16-0020) or recombinant protein for 3 hours at 4° C., and the beads were washed 3× with EB150 buffer and then eluted in 2×LDS with 200 mM DTT with heating at 95° C. for 5 minutes. The pull downs were then visualized by immunoblot analysis or colloidal blue staining.
Mammalian mononucleosomes were purified from HEK293T cells similar to as previously described (Mashtalir et al. (2014) Mol. Cell 54:392-406). Cells were scraped from plates, washed with cold PBS, and centrifuged at 5,000 rpm for 5 min at 4° C. Pellets were resuspended in hypotonic buffer (EBO: 50 mM Tris HCl, pH 7.5, 1 mM EDTA, 1 mM MgCl2, 0.1% NP40 supplemented with 1 mM DTT, 1 mM PMSF, and protease inhibitor cocktail (Roche, C756U27) and incubated for 5 min on ice. The suspension was centrifuged at 5,000 rpm for 5 min at 4° C., and pellets were resuspended in 5 volumes of EB420 (EBO: 50 mM Tris HCl, pH 7.5, 420 mM NaCl, 1 mM MgCl2, 0.1% NP40 with supplemented with 1 mM DTT and 1 mM PMSF containing protease inhibitor cocktail (Roche, C756U27). Homogenate incubated on rotator for 1 hour at 4° C. The supernatant was then centrifuged at 20,000 rpm (30,000×g) for 1 hour at 4° C. using a SW32Ti rotor. Supernatant was then discarded and chromatin pellet was washed in MNAse buffer (20 mM Tris-HCl pH 7.5, 100 mM KCl, 2 mM MgCl2, 1 mM CaCl2, […] sucrose, 0.1% NP-40, and protease inhibitor cocktail) three times. Following MNase treatment (3 U/mL for 30 min at room temperature, Sigma-Aldrich), the reaction was quenched with 5 mM of EGTA and 5 mM of EDTA. The samples were then centrifuged at 20,000×g for 1 hour at 4° C. to obtain the soluble chromatin fraction. Soluble chromatin fraction was loaded onto 10-30% glycerol gradient (Mashtalir et al. (2014) Mol. Cell 54:392-406) and fractions containing mononucleosomes were isolated and concentrated using centrifugal filter (Amicon, EMD Millipore).

[6] = tested on: Barr bodies (inactive X); test: Immunofluorescence, Barr body localization; assay type: cell-based, human; settings: immunofluorescence
Description: Immunofluorescent images were obtained as previously described (Daou et al. (2011) Pro. Nat. Acad. Sci. U.S.A 108:2747-2752). Following lentiviral infection and/or drug treatment, cells were prepared by fixation in 3% PFA-PBS and then were permeabilized with PBS 0.1% NP40. Following incubation with primary antibodies, the Anti-rabbit Alexa Fluor® 594 and Anti-mouse Alexa Fluor® 488 (Life Technologies) secondary antibodies were used for visualization. Staining with 4′,6-diamidino-2-phenylindole (DAPI) was used to visualize nuclei. Images were acquired using Zeiss Axio Imager Z2 microscope and images were processed using ImageJ program (NIH).

[7] = tested on: SYO-1 SS cells; test: Cell proliferation assay; assay type: cell-based, human; settings: SYO-1, rescue with variant
Description: To measure cell proliferation following lentiviral infection, 2.5×10^4 cells per well were seeded in 12-well plates following 48-hour exposure to lentivirus and 5-day selection with puromycin or blasticidin, with Day 7 denoting the day cells were plated after infection and selection. The cell viability in three wells was then measured using a Vi-CELL™ Cell Counter (Beckman, Brea, CA) every 72 hours.

[8] = HEK293T nucleosomes, normalized to histone norm peptide, log2
[9] = HEK293T nucleosomes, parent peptide H2AK5K9, normalized to histone norm peptide, log2
[10] = HEK293T nucleosomes, parent peptide H2AK13K15, normalized to histone norm peptide, log2
[11] = HEK293T nucleosomes, parent peptide H2B, normalized to histone norm peptide, log2
[12] = HEK293T nucleosomes, parent peptide H3K4, normalized to histone norm peptide, log2
[13] = HEK293T nucleosomes, parent peptide H3K9K14, normalized to histone norm peptide, log2
[14] = HEK293T, parent peptide H2AK5K9
[15] = HEK293T, parent peptide H3K9K14

Substance: ARID1B: BAF complex subunit quantified in the IP MS
Aska (shControl)/Aska (shSS18-SSX) LFQ Intensity (Norm to SMARCA4 Rep 1) ([1]; Rep 1): 0.7212
Aska (shControl)/Aska (shSS18-SSX) LFQ Intensity (Norm to SMARCA4 Rep 2) ([1]; Rep 2): 0.6498

log2norm (Light/Heavy) intensity ratio of H2AZ(1to19)K4ac1 [2]: −0.217 and 0.048
log2norm (Light/Heavy) intensity ratio of H2AZ(1to19)ac0 [2]: −0.784 and −0.697
log2norm (Light/Heavy) intensity ratio of H4(20to23)K20me0 [3, 8]: 0.017 and 0.092
log2norm (Light/Heavy) intensity ratio of H4(20to23)K20me1 [3, 8]: −0.427 and −0.443
log2norm (Light/Heavy) intensity ratio of H4(20to23)K20me2 [3, 8]: −0.414 and −0.391
log2norm (Light/Heavy) intensity ratio of H4(20to23)K20me3 [3, 8]: −0.109 and 0.055
H4(20to23)K20me1 norm to ctrl avg ([3]; HEK293T): 0.211 and 0.195
H4(20to23)K20me2 norm to ctrl avg ([3]; HEK293T): 0.024 and 0.047
Substance: SSX1
log2norm (Light/Heavy) intensity ratio of H2A(4to11)K5ac1 [4, 9]: 0.569 and 0.624
log2norm (Light/Heavy) intensity ratio of H2A(4to11)K5ac1K9ac1 [4, 9]: −0.031 and −0.049
log2norm (Light/Heavy) intensity ratio of H2A(4to11)K9ac1 [4, 9]: −0.254 and −0.375
log2norm (Light/Heavy) intensity ratio of H2A(4to11)ac0 [4, 9]: −0.026 and 0.061
log2norm (Light/Heavy) intensity ratio of H2A(12to17)K13ac1 [4, 10]: 0.032 and −0.047
log2norm (Light/Heavy) intensity ratio of H2A(12to17)K15ac1 [4, 10]: 0.042 and −0.086
log2norm (Light/Heavy) intensity ratio of H2B(1to29)K5ac1 [4, 11]: 0.273 and 0.323
log2norm (Light/Heavy) intensity ratio of H2B(1to29)ac0 [4, 11]: 0.152 and 0.160
log2norm (Light/Heavy) intensity ratio of H3K4ac1 [4, 12]: 0.263 and 0.320
log2norm (Light/Heavy) intensity ratio of H3K4me0 [4, 12]: 0.549 and 0.339
log2norm (Light/Heavy) intensity ratio of H3K4me2 [4, 12]: 0.778 and 0.532
log2norm (Light/Heavy) intensity ratio of H3K4me3 [4, 12]: 0.766 and 0.505
log2norm (Light/Heavy) intensity ratio of H3K9me1S10ph1K14ac1 [4, 13]: −2.668 and −2.507
log2norm (Light/Heavy) intensity ratio of H3K9me2S10ph1K14ac1 [4, 13]: −0.870 and −1.009
log2norm (Light/Heavy) intensity ratio of H3K79me2 ([4]; HEK293T nucleosomes, parent peptide H3K79, normalized to histone norm peptide, log2): 0.826 and 0.557
H2A(4to11)K5ac1K9ac1 norm to ctrl avg [4, 14]: 0.050 and 0.032
H2A(4to11)K9ac1 norm to ctrl avg [4, 14]: 0.404 and 0.283
H2A(12to17)K13ac1 norm to ctrl avg ([4]; HEK293T, parent peptide H2AK13K15): 0.266 and 0.188
H2B(1to29)K5ac1 norm to ctrl avg ([4]; HEK293T, parent peptide H2B): 0.154 and 0.203
H2B(1to29)ac0 norm to ctrl avg ([4]; HEK293T, parent peptide H2B): 0.191 and 0.199
H3K4me0 norm to ctrl avg ([4]; HEK293T, parent peptide H3K4): 0.514 and 0.304
H3K9me1S10ph1K14ac1 norm to ctrl avg [4, 15]: 0.290 and 0.451
H3K9me2S10ph1K14ac0 norm to ctrl avg [4, 15]: 1.301 and 0.892
H3K9me2S10ph1K14ac1 norm to ctrl avg [4, 15]: 1.152 and 1.012

Substance: SSX aa165-188: biotinylated 24-residue SSX peptide lacking the W164 residue
nucleosome binding in pull-down [5]: failed to do so

Substance: SS18-SSX: SS18 aa 1-379 fused to the C-terminal 78 aa of SSX1 (SEQ ID NO: 225)
localization / recruitment to Barr bodies [6]: strong colocalization
proliferation of SS cells with shSSX knockdown of endogenous SS18-SSX [7]: rescued proliferation
